Measurements: US8173428B2, “LNA oligonucleotides and the treatment of cancer” (Santaris Pharma A/S, priority 2004, dated 2012)
Read-outs that look alike come from different tables or passages of the source. Oligonucleotides are written 5' to 3', each unit as a sugar letter and its base; * is a phosphorothioate linkage, no mark a phosphodiester; rarer units and linkages stand in square brackets, end groups in braces. Plain capitals give the bases only. l = locked nucleic acid (LNA); [5mC] = 5-methylcytosine; d = 2'-deoxy (DNA)

What was measured:
15PC3 cells [1] = assay: MTS assay of proliferating viable cells; format: cell-based, human
Method: (§1) Culturing of cells: 15PC3 was cultured in DMEM (Sigma) containing 10% fetal bovine serum, Glutamax I and gentamicin at 37° C., 95% humidity and 5% CO2. The cervical carcinoma cell line HeLa were cultured in MEM (Sigma) containing 10% fetal bovine serum, Glutamax I and gentamicin at 37° C., 95% humidity and 5% CO2. When reaching 60-70% confluency, the cells were transfected using Lipofectamine 2000 (5 μg/ml).
Cells were seeded to a density of 10000 cells per well in clear 96 well plate (Scientific Orange no. 1472030100) in DMEM the day prior to transfection. The next day cells were washed once in prewarmed OptiMEM followed by addition of 72 μl OptiMEM containing 5 μg/ml Lipofectamine 2000 (Invitrogen). Cells were incubated for 7 min before adding 18 μl oligonucleotides diluted in OptiMEM. […] After 4 hours of treatment, cells were washed in OptiMEM and 100 μl serum containing DMEM was added. Following oligonucleotide treatment cells were allowed to recover for the period indicated, viable cells were measured by adding 20 μl of the tetrazolium compound [3-(4,5-[…])-5-(3-carboxymethoxyphenyl)-2-(4-sulfophenyl)-2H-tetrazolium, inner salt; MTS] and an electron coupling reagent (phenazine ethosulfate, PES; CellTiter 96® AQueous One Solution Cell Proliferation Assay, Promega). Viable cells were measured at 490 nm and 650 nm in a Powerwave (Biotek Instruments).
The inhibition of growth rate ΔOD (490-650 nm)/h was plotted against the oligonucleotide concentration relative to mock, which was set to 100%. The maximum inhibition of proliferation observed in the MTS assay was 70% (minimum 30%). (Table 5 and FIG. 5)

15PC3 cells [2] = assay: Caspase 3/7 activity (apoptosis) in transfected 15PC3 cells; format: cell-based, human; conditions: for Apoptosis At 5 nM, 24 hours: 24 hours (Table 7, FIG. 3); for Max Apoptosis: 25 nM, 48 hours (Table 7)
Method: as §1
15PC3 cells were seeded to a density of 10000 cells per well in white 96-well plates (Nunc 136101) in DMEM the day prior to transfection. The next day cells were washed once in prewarmed OptiMEM followed by addition of 72 μl OptiMEM containing 5 μg/ml Lipofectamine-2000 (In vitrogen). Cells were incubated for 7 min before adding 18 μl oligonucleotides diluted in OptiMEM. The final oligonucleotide concentration ranged from 0.2 nM to 100 nM. After 4 hours of treatment, cells were washed in OptiMEM and 100 μl DMEM containing serum was added. Following oligonucleotide treatment, cells were allowed to recover for the period indicated before they were removed from the CO2 incubator and equilibrated to room temperature for 15 min. 100 μl of the highly sensitive Caspase 3/7-Glo™ Reagent (Promega) was added directly to the cells, and the plates were incubated for 20 min. Luminescence (luciferase activity) was recorded in a Luminoskan Ascent instrument (Thermo Labsystems). The luciferase activity is measured as Relative Light Units per seconds (RLU/s). The data was analysed using the Ascent software 2.4.2. Graphs of fold induction relative to mock were generated using MS Excel.
Staurosporine, Camptothecine or Taxol induced cells served as positive controls (see FIGS. 3, 6A and Table 4 plus Example 21).

complementary RNA = assay: Measurement of melting temperature (Tm) of the duplex; format: binding; conditions: 3 μM, 10 mM sodium phosphate/100 mM NaCl/0.1 nM EDTA, pH 7.0
Method: Measurement of melting temperature (Tm) of the compounds: A 3 μM solution of SEQ ID NO. 2 in 10 mM sodium phosphate/100 mM NaCl/[…], pH 7.0 was mixed with its complement DNA/RNA 3 μM in 10 mM sodium phosphate/100 mM NaCl/[…], pH 7.0 at 90° C. for a minute and allowed to cool to room temperature. The Tm of the duplex was then determined by increasing the temperature 1° C./min. from 25 to 95° C. The Tm of SEQ ID NO.

HeLa cells = assay: Annexin V-FITC/PI flow cytometry analysis; format: cell-based, human; conditions: 5 nM or 25 nM
Method: as §1
0.4×10^6 HeLa cells were seeded in T25 flasks one day prior to transfection. On the day of transfection, the cells were washed once in 37° C. OptiMEM followed by addition of 2.8 ml OptiMEM containing 5 μg/ml Lipofectamine-2000 (In vitrogen). Cells were incubated for 7 min before adding 700 μl oligonucleotides diluted in OptiMEM to a final concentration of 5 nM or 25 nM, Mock transfected cells served as control. After 4 hours of treatment cells were washed in OptiMEM and 3 ml culture medium was added. Following oligonucleotide treatment cells were allowed to recover for 48 hours before they were harvested by scraping and washed twice in PBS. 0.2×10^6 cells were incubated with 5 μl Annexin V-FITC and 10 μl propidium iodide (PI-10 mg/ml) and incubated for 15 min at room temperature in the dark. […] Moreover, TRAIL (Apo2L) induced HeLA cells (0.5 μg/ml) were used as positive control. (See FIG. 4)

15PC3 cells [3] = assay: Cell cycle analysis by propidium iodide staining and FACS; format: cell-based, human; conditions: 10 nM, 24 hours, 15PC3 cells
Method: Cell culturing: Human prostate cancer 15PC3 cells (kindly provided by Dr. F Baas, Neurozintuigen Laboratory, AMC, The Netherlands) were seeded to a density of 8×10E5 cells in T75-flasks and grown for two days at 37° C. and 5% CO2 in DMEM supplemented with 10% FBS, Glutamax and Gentamicin. Two days following seeding cells were transfected with 2-10 nM SEQ ID NO. 2 using Lipofectamine at a final conc. of 7.5 μg/ml. Transfections were carried out as described by Dean et al. (1994, JBC 269 p. 16416 16424). In short cells were incubated with Lipofectamine diluted in OptiMEM for 7-10 min followed by the addition of the oligonucleotide to total volume of 8.7 ml per T75 flask. 4 hours following transfection cells were washed in OptiMEM and grown at 37° C. for 12-96 hours in complete growth medium with or without the addition of 2-100 nM Taxol (Sigma Aldrich). Cells were harvested for either mRNA extraction, Caspase 3/7 assay or fixed, stained with PI and analysed by FACS analysis.
Cell culturing and transfections: As in example 13.
Fixation and PI staining: Cells were washed in PBS, harvested and resuspended in 100 μl in ice cold PBS. 900 μl ice cold 70% […] and fixed cells were kept at −20 until use. […]
SEQ ID NO. 2 transfected 15PC3 cells were exposed to different concentrations of Taxol and analysed by Propidium Iodide staining and subsequent FACS analysis (FIG. 7a-c). […]

human Survivin RNA = assay: Survivin mRNA knockdown in transfected 15PC3 cells by real-time PCR; format: cell-based
Method: Cell culturing and transfections: 15PC3 cells were seeded in 12-well plates and grown for two days at 37° C. (5% CO2) in DMEM supplemented with 10% FBS, Glutamax I and Gentamicin. When the cells were 60-70% confluent, they were transfected in duplicates with different concentrations of oligonucleotides (0.2-25 nM) using Lipofectamine 2000 (10 μg/ml). Transfections were carried out essentially as described by Dean et al. (1994, JBC 269:16416-16424). In short, cells were incubated for 10 min. with Lipofectamine in OptiMEM followed by addition of oligonucleotide to a total volume of 0.5 ml transfection mix per well. […] Cells were then harvested for protein and RNA analysis.
Total RNA was isolated using RNeasy mini kit (Qiagen). Cells were washed with PBS, and Cell Lysis Buffer (RTL, Qiagen) supplemented with 1% mercaptoethanol was added directly to the wells. After a few minutes, the samples were processed according to manufacturer's instructions.
First strand synthesis was performed using OmniScript Reverse Transcriptase kit according to the manufacturer's instructions (Qiagen). For each sample, 0.5 μg total RNA was adjusted to 12 μl and mixed with 0.2 μl poly (dT)12-18 (0.5 μg/μl) (Life Technologies), 2 μl dNTP mix (5 mM each), 2 μl 10× RT buffer, 0.5 μl RNAguard™ RNase Inhibitor (33 units/ml, Amersham) and 1 μl OmniScript Reverse Transcriptase followed by incubation at 37° C. for 60 min. and heat inactivation at 93° C. for 5 min.
To determine the relative Survivin mRNA level in oligonucleotide treated and untreated cells, the generated cDNA was used in quantitative PCR analysis using an iCycler from BioRad. The cDNA was diluted 5-fold and 8 μl was mixed with 52 μl Taqman probe master mix containing 30 μl Platinum Quantitative PCR SuperMix UDG 2×PCR master mix (Invitrogen), 3 μl 20× Taqman probe and primer mix (forward primer: 5′[…] (SEQ ID NO:29), final 0.9 μM. Reverse primer: 5′[…] (SEQ ID NO:30), final 0.6 μM and taqman probe: FAM-[…]-TAMRA (SEQ ID NO:31), final 0.1 μM) and 19 μl H2O. The 60 μl were dispersed in two wells (96 well plates) with […] in each well. For human Bcl-2 the PCR primers were: […]
The primers and probe were obtained from […] (France). To normalize any variance in sample preparation, the endogenous GAPDH mRNA was quantified using a pre-developed Taqman assay reagent from Applied Biosystems (4310884E) according to manufacturer's Instructions. Two-fold dilutions of cDNA, synthesised from untreated 15PC3 cells (expressing both Survivin and GAPDH), was used to prepare standard curves for the assays. The PCR program was as follows: 50° C. for 2 min., 95° C. for 10 min. followed by 40 cycles of 95° C. 15 sec., 60° C. 1 min. Relative quantities of Survivin mRNA were determined from the calculated threshold cycle using the iCycler IQ Real Time Detection System software.
In accordance with the present invention, a series of oligonucleotides were designed to target different regions of the human Survivin RNA, using published sequences (GenBank accession number NM_001168).
LNA oligonucleotides were evaluated for their potential to knockdown Survivin mRNA in 15PC3 cells. The data are presented as percentage down-regulation relative to mock transfected cells. Transcript steady state was monitored by Real-time PCR and normalised to the GAPDH transcript steady state, see Table 3. Note that all LNA C are 5-methyl-Cytosine.

[4] = 48 hours (Table 7, FIG. 5), read-out: Proliferation IC50 (48 hours)
[5] = Survivin mRNA down-regulation relative to mock, normalised to GAPDH, standard deviation in brackets, at least three experiments

TsGsTsGscstsaststscstsgstsgsAsAsTsT (lT*lG*lT*lG*dC*dT*dA*dT*dT*dC*dT*dG*dT*dG*lA*lA*lT*lT) [SEQ ID NO. 21]
IC50 (15PC3 cells [1]; [4]): 25 nM | Apoptosis At 5 nM, 24 hours (15PC3 cells [2]; 5 nM): No activity | Max Apoptosis (15PC3 cells [2]): 2.5-fold | Tm (° C.) complementary RNA (complementary RNA): 62.7 °C

^MeCsGs^MeCsAsgsaststsasgsasasAs^MeCs^MeCst (l[5mC]*lG*l[5mC]*lA*dG*dA*dT*dT*dA*dG*dA*dA*lA*l[5mC]*l[5mC]*dT) [SEQ ID NO. 24, negative control oligonucleotide, design 4-8-3-1]
Proliferation (relative number of viable cells) (15PC3 cells [1]; 0.2, 1, 5, 25 and 100 nM, 13-72 hours after transfection, 15PC3 cells): does not | IC50 (15PC3 cells [1]; 48 hours, transfected 15PC3 cells (Table 5), read-out: Inhibition of proliferation, MTS assay IC50 (48 hours)): 86.9 nM | Induction of early and late apoptosis (Annexin V-FITC/PI staining) (HeLa cells): do not induce apoptosis | Maximum Induction Fold-induction of apoptosis, Caspase 3/7 assay (15PC3 cells [2]; 100 nM, 48 hours, 15PC3 cells): 3.1 x (100 nM, 48 hours) | Fold induction of apoptosis, Caspase 3/7 assay (15PC3 cells [2]; 24 hours, 5 nM, 15PC3 cells, relative to mock): 1.5 x | Effect on the cell cycle (15PC3 cells [3]): no effect on the cell cycle

5′-Gs^MeCsAs^MeCsasgststsgsasasas^MeCsAsTsc-3′ (lG*l[5mC]*lA*l[5mC]*dA*dG*dT*dT*dG*dA*dA*dA*l[5mC]*lA*lT*dC) [SEQ ID NO. 22]
IC50 (15PC3 cells [1]; [4]): 25 nM | Apoptosis At 5 nM, 24 hours (15PC3 cells [2]; 5 nM): No activity | Max Apoptosis (15PC3 cells [2]): 2.5-fold

^MeCsTscscscsasgscsgstsgscsgs^MeCs^MeCsa (l[5mC]*lT*dC*dC*dC*dA*dG*dC*dG*dT*dG*dC*dG*l[5mC]*l[5mC]*dA) [SEQ ID NO. 26, reference compound]
Survivin mRNA expression (human Survivin RNA; 10 nM, 24 hours, single agent or combined with control oligonucleotides): does not have any effect on Survivin

5′-Gs^MeCsAsGstsgsgsastsgsasasGs^MeCs^MeCsA-3′ (lG*l[5mC]*lA*lG*dT*dG*dG*dA*dT*dG*dA*dA*lG*l[5mC]*l[5mC]*lA) [SEQ ID NO. 23, reference compound]
IC50 (human Survivin RNA; [5]): 2.5 nM | IC75 [nM] (human Survivin RNA; [5]): 6.2 (1.6) nM | Apoptosis At 5 nM, 24 hours (15PC3 cells [2]; 5 nM): 2-fold | Max Apoptosis (15PC3 cells [2]): 5.5-fold
